Measurements published in patent publication US11780893B2, “Kv1.3 blockers” (Zealand Pharma A/S, priority 2019, dated 2023).
pIC50: −log10 of the molar value. Like-named read-outs stand apart in the source and are kept apart here. Bridge positions count the residues as written; N and C are the ends. Square brackets hold non-standard residues; d marks the D form. Peptide text beside a SMILES is read from it. Nle = CCCC[C@H](N)C(=O)O

Assays:
Kv1.2 = target: T1, Kv1.2 (Homo sapiens, UniProt P16389); experiment: cell-based; conditions: for IC50: CHO cells, whole-cell patch clamp, read-out: Potency IC50 (nM) Kv1.2
T1 construct: expressed in transfected cells; host or cells: Chinese Hamster Ovary (CHO)
T1 sequence (P16389 whole entry): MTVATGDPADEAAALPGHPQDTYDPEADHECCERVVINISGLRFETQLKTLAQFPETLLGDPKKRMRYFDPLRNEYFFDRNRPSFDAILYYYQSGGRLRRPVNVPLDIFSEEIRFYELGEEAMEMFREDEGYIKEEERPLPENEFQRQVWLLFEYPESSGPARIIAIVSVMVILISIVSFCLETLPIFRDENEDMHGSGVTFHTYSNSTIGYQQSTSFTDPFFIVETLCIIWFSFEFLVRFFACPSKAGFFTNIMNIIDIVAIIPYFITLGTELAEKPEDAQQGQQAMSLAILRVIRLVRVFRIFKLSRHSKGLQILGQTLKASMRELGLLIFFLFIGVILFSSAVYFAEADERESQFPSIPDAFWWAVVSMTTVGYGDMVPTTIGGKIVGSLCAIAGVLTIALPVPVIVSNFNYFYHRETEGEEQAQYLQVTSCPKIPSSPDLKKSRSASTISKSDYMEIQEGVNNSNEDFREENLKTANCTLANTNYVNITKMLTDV

Kv1.3 = target: T2, Kv1.3 (Homo sapiens, UniProt P22001); experiment: cell-based; conditions: CHO cells, whole-cell patch clamp; read-out: Potency IC50 (nM) Kv1.3
T2 construct: expressed in transfected cells; host or cells: Chinese Hamster Ovary (CHO)
T2 sequence (P22001 whole entry): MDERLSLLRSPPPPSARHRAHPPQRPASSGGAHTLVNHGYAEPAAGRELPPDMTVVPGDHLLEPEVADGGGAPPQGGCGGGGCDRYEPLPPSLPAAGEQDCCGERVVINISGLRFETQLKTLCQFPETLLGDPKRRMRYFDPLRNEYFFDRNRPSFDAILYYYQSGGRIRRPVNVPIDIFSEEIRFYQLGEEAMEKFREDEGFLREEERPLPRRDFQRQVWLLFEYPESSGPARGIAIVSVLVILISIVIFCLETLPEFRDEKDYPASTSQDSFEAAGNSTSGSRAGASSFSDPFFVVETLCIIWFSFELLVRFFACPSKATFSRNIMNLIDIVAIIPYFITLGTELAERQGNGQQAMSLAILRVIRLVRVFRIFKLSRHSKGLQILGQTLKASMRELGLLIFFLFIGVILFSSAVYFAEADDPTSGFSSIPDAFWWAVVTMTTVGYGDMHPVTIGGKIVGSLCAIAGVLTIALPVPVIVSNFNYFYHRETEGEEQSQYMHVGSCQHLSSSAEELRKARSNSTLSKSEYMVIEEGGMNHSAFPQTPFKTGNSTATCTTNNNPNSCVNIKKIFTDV

Kv1.6 = target: T3, Kv1.6 (Homo sapiens, UniProt P17658); experiment: cell-based; conditions: for IC50: CHO cells, whole-cell patch clamp, read-out: Potency IC50 (nM) Kv1.6; for Selectivity Kv1.6/Kv1.3: ratio IC50[Kv1.6]/IC50[Kv1.3]
T3 construct: expressed in transfected cells; host or cells: Chinese Hamster Ovary (CHO)
T3 sequence (P17658 whole entry): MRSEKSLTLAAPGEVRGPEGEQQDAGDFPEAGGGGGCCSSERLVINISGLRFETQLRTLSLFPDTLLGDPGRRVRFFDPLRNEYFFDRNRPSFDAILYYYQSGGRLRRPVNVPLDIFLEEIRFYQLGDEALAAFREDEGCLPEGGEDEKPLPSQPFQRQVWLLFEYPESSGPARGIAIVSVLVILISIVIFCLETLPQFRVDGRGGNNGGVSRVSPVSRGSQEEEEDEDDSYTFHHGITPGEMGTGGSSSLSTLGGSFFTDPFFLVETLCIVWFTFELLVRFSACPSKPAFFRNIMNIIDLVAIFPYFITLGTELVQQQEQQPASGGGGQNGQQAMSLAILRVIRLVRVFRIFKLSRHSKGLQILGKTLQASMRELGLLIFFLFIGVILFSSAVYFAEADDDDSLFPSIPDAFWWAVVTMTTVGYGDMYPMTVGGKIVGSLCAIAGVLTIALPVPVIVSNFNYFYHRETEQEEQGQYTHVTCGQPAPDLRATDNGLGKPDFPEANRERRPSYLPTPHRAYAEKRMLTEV

[1] = system: Human peripheral blood mononuclear cells (PBMCs); experiment: IL-2 release from anti-CD3 stimulated human PBMCs (Example 4b); assay type: cell-based; conditions: geometric mean, at least 6 replicates, read-out: anti-CD3 PBMC/IL-2 IC50
Protocol: Human peripheral blood mononuclear cells (PBMCs) were used to assess the effects of Kv1.3 blockers on T-cell activation as determined by IL-2 release after stimulation with anti-CD3.
Human PBMCs were obtained from Precision for Medicine (Frederick, Md.). Cells from 5 donors were used. Plate-bound anti-CD3 was used to stimulate bulk T cells in the PBMC preparations. Briefly, 96-well plates were coated with anti-CD3 antibody for app. 16 hours at 5° C., using 50 μl of a 1 μg/ml anti-CD3 solution diluted in PBS. Thereafter the plates were washed twice.
Kv1.3 blockers were subsequently diluted in medium (RPMI 1640 with Glutamax-I containing, 10% v/v Fetal Bovine Serum, 1% v/v penicillin-streptomycin Solution) and added in a volume of 50 μl. The compounds indicated in Table 4b were used at concentrations ranging from […] to 1000 nM (half log dilutions, starting concentrations varying).
Finally, 50.000 PBMCs in the same medium were added to each well in a volume of 50 μl, giving a final volume of 100 μl per well. The plates were incubated for 20-24 hours in a 37° C./5% CO2 incubator. After centrifugation of the plates, 25 μl supernatant was transferred to IL-2 detection plates (MSD Human IL-2 Tissue Culture Kit, cat #K151AHB-2) and IL-2 was measures as described by the manufacturer (Meso Scale Discovery, Rockville, Md., USA).
Results are shown in Table 4b as geometric mean of IC50 values obtained from anti-CD3 stimulated human PBMC assays. All values derive from at least 6 replicates.

Kv1.1 = target: T4, Kv1.1 (Homo sapiens, UniProt Q09470); experiment: cell-based; conditions: for IC50: CHO cells, whole-cell patch clamp, read-out: Potency IC50 (nM) Kv1.1; for Selectivity Kv1.1/Kv1.3: ratio IC50[Kv1.1]/IC50[Kv1.3]
T4 construct: expressed in transfected cells; host or cells: Chinese Hamster Ovary (CHO)
T4 sequence (Q09470 whole entry): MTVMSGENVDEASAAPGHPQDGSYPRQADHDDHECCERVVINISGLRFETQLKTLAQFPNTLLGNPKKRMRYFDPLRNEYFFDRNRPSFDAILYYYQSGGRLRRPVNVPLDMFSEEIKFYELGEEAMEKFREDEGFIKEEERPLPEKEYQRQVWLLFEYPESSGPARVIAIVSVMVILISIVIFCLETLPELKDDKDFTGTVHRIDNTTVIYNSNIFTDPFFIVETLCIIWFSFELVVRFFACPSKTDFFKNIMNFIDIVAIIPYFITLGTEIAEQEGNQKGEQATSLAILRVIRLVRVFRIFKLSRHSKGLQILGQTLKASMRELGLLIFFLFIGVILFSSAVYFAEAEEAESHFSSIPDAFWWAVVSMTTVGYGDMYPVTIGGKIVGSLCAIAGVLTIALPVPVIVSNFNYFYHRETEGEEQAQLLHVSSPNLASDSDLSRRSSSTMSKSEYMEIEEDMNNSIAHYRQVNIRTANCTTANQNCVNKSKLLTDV

Rat whole blood = Rat whole blood (Rattus norvegicus, UniProt P15384)
Chain of Rat whole blood (P15384 whole entry): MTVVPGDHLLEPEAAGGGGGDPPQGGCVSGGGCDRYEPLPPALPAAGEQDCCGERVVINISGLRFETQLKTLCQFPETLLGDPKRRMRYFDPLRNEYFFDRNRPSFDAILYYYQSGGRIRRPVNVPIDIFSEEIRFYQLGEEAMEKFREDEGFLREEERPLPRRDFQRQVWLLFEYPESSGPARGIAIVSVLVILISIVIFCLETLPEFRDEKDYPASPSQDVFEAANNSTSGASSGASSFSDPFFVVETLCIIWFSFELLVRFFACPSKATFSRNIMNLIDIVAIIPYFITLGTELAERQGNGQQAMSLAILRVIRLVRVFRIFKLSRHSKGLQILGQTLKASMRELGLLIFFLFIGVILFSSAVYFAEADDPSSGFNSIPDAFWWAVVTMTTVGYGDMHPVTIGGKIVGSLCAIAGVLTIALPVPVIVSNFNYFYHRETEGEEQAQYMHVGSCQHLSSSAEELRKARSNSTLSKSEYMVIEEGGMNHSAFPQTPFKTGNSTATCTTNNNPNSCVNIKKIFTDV

[2] = target: T5, human Kv1.3 voltage-gated K+ channel (Homo sapiens, UniProt P22001); experiment: cell-based; conditions: inhibition of thallium flux, CHO-DUKX cells with human Kv1.3; read-out: IC50
T5 construct: host or cells: CHO-DUKX
T5 sequence (P22001 whole entry): as the sequence (P22001 whole entry) above

[3] = system: delayed-type hypersensitivity (DTH) ear swelling response; assay type: in vivo, rat; conditions: CsA 10 mg/kg per os, +/- SD
in vivo = conditions: male, rat, sc, 70 nmol/kg
[4] = Exp #1, Kv1.3 blocker 70 nmol/kg SC 24 hrs prior to KLH challenge
[5] = Exp #2, Kv1.3 blocker 70 nmol/kg SC 24 hrs prior to KLH challenge
[6] = Exp #3, Kv1.3 blocker 50 nmol/kg SC 24 hrs prior to KLH challenge

| Compound | IC50 (Kv1.2) [nM] | IC50 (Kv1.3) [nM] | IC50 (Kv1.6) [nM] | Selectivity Kv1.6/Kv1.3 (Kv1.6) | pIC50 [1] | IC50 (Kv1.1) [nM] | Selectivity Kv1.1/Kv1.3 (Kv1.1) | pIC50 (Rat whole blood) | pIC50 [2] | % inhibition of ear thickness (AUC of Δ ear thickness 0-48 hours) [3, 4] | % inhibition of ear thickness (AUC of Δ ear thickness 0-48 hours) [3, 5] | % inhibition of ear thickness (AUC of Δ ear thickness 0-48 hours) [3, 6] | AUC(0-inf) (in vivo) [µM·h] | Cmax (in vivo) [nM] | half-life (in vivo) [min] | % inhibition of ear thickness (AUC of Δ ear thickness 0-48 hours) ([3]; Exp #4, Kv1.3 blocker 100 nmol/kg SC 24 hrs prior to KLH challenge) | Selectivity Kv1.2/Kv1.3 (Kv1.2; ratio IC50[Kv1.2]/IC50[Kv1.3]) |
| --- | --- | --- | --- | --- | --- | --- | --- | --- | --- | --- | --- | --- | --- | --- | --- | --- | --- |
| CC[C@H](C)[C@@H]1NC(=O)[C@H](C)NC(=O)[C@H](CCCCN)NC(=O)[C@H](CC(C)C)NC(=O)[C@@H]2CSSC[C@@H](C(=O)N[C@@H](Cc3ccc(O)cc3)C(=O)N3CCC[C@H]3C(=O)N[C@@H](CCCNC(=N)N)C(=O)O)NC(=O)[C@H](CCCCN)NC(=O)[C@@H]3CSSC[C@H](NC(=O)[C@H](CCC(=O)O)NC(=O)[C@H](C(C)C)NC(=O)[C@H](CO)NC(=O)[C@H](C)NC(=O)[C@H](CO)NC(=O)[C@@H](NC(=O)[C@H](CCCNC(=N)N)NC(=O)[C@H](CCSC)NC(=O)[C@H](CC(=O)O)NC(=O)[C@H](CCSC)NC(=O)[C@@H](N)CCC(N)=O)CSSC[C@H](NC(=O)[C@H](CCCCN)NC(=O)CNC(=O)[C@H](Cc4ccccc4)NC(=O)[C@H]([C@@H](C)CC)NC(=O)[C@H](CO)NC(=O)CNC1=O)C(=O)N[C@@H](CCSC)C(=O)N[C@@H](CC(N)=O)C(=O)N[C@@H](CCCCN)C(=O)N[C@@H](CCCCN)C(=O)N3)C(=O)N[C@@H](CCCCN)C(=O)N[C@@H](CCC(N)=O)C(=O)N[C@@H](CCCCN)C(=O)N2 [Compound 1] (H-QMDMRCSASVECKQKCLKAIGSIFGKCMNKKCKCYPR-OH; disulfide 6-27, 12-32, 16-34) | 518 | 0.38 | > 3000 | >7900 | 10.05 | > 3000 | >7900 | ≥ 9.00 | 9.62 |  |  |  |  |  |  |  |  |
| CC[C@H](C)[C@@H]1NC(=O)[C@H](C)NC(=O)[C@H](CCCCN)NC(=O)[C@H](CC(C)C)NC(=O)[C@@H]2CSSC[C@@H](C(=O)N[C@@H](Cc3ccc(O)cc3)C(=O)N3CCC[C@H]3C(=O)N[C@@H](CCCNC(=N)N)C(=O)O)NC(=O)[C@H](CCCCN)NC(=O)[C@@H]3CSSC[C@H](NC(=O)[C@H](CCC(=O)O)NC(=O)[C@H](C(C)C)NC(=O)[C@H](CO)NC(=O)[C@H](C)NC(=O)[C@H](CO)NC(=O)[C@@H](NC(=O)[C@H](CCCNC(=N)N)NC(=O)[C@H](CCSC)NC(=O)[C@H](CC(=O)O)NC(=O)[C@H](CCSC)NC(=O)[C@@H](N)CC(N)=O)CSSC[C@H](NC(=O)[C@H](CCCCN)NC(=O)CNC(=O)[C@H](Cc4ccccc4)NC(=O)[C@H]([C@@H](C)CC)NC(=O)[C@H](CO)NC(=O)CNC1=O)C(=O)N[C@@H](CCSC)C(=O)N[C@@H](CC(N)=O)C(=O)N[C@@H](CCCCN)C(=O)N[C@@H](CCCCN)C(=O)N3)C(=O)N[C@@H](CCCCN)C(=O)N[C@@H](CCC(N)=O)C(=O)N[C@@H](CCCCN)C(=O)N2 [Compound 3] (H-NMDMRCSASVECKQKCLKAIGSIFGKCMNKKCKCYPR-OH; disulfide 6-27, 12-32, 16-34) | 409 | 0.27 | > 3000 | >11300 | 10.22 | > 3000 | >11300 | ≥ 9.00 | 9.52 | 38.8 (+/−9.7) % | 25.0 (+/−12.5) % | 37.3 (+/−13.8) % | 0.0839 | 36.9 | 59.4 |  |  |
| CCCC[C@H](NC(=O)[C@@H]1CCCN1)C(=O)N[C@@H](CC(=O)O)C(=O)N[C@@H](CCCC)C(=O)N[C@@H](CCCNC(=N)N)C(=O)N[C@H]1CSSC[C@@H]2NC(=O)[C@H](CCCCN)NC(=O)CNC(=O)[C@H](Cc3ccccc3)NC(=O)[C@H]([C@@H](C)CC)NC(=O)[C@H](CO)NC(=O)CNC(=O)[C@H]([C@@H](C)CC)NC(=O)[C@H](C)NC(=O)[C@H](CCCCN)NC(=O)[C@H](CC(C)C)NC(=O)[C@@H]3CSSC[C@@H](C(=O)N[C@@H](Cc4ccc(O)cc4)C(=O)N4CCC[C@H]4C(=O)N[C@@H](CCCNC(=N)N)C(N)=O)NC(=O)[C@H](CCCCN)NC(=O)[C@H](CSSC[C@H](NC(=O)[C@H](CCC(=O)O)NC(=O)[C@H](C(C)C)NC(=O)[C@H](CO)NC(=O)[C@H](C)NC(=O)[C@H](CO)NC1=O)C(=O)N[C@@H](CCCCN)C(=O)N[C@@H](CCC(N)=O)C(=O)N[C@@H](CCCCN)C(=O)N3)NC(=O)[C@H](CCCCN)NC(=O)[C@H](CCCCN)NC(=O)[C@H](CC(N)=O)NC(=O)[C@H](CCCC)NC2=O [Compound 41] (H-P[Nle]D[Nle]RCSASVECKQKCLKAIGSIFGKC[Nle]NKKCKCYPR-NH2; disulfide 6-27, 12-32, 16-34) | 939 | 0.18 | > 3000 | >17100 | 10.52 | > 3000 | >17100 | ≥ 9.00 | 9.82 | 46.9 (+/−10.9) % | 27.7 (+/−11.5) % | 22.2 (+/−11.1) % |  |  |  | 41.9 (+/−12.5) % |  |
| CCCC[C@@H]1NC(=O)[C@@H]2CSSC[C@H](NC(=O)[C@H](CCCNC(=N)N)NC(=O)[C@H](CCCC)NC(=O)[C@H](CC(=O)O)NC(=O)[C@H](CCCC)NC(=O)[C@@H](N)CC(N)=O)C(=O)N[C@@H](CO)C(=O)N[C@@H](C)C(=O)N[C@@H](CO)C(=O)N[C@@H](C(C)C)C(=O)N[C@@H](CCC(=O)O)C(=O)N[C@H]3CSSC[C@H](NC(=O)[C@H](CCCCN)NC(=O)[C@H](CCCCN)NC(=O)[C@H](CC(N)=O)NC1=O)C(=O)N[C@@H](CCCCN)C(=O)N[C@H](C(=O)N[C@@H](Cc1ccc(O)cc1)C(=O)N1CCC[C@H]1C(=O)N[C@@H](CCCNC(=N)N)C(N)=O)CSSC[C@H](NC(=O)[C@H](CO)NC(=O)[C@H](CCC(N)=O)NC(=O)[C@H](CCCCN)NC3=O)C(=O)N[C@@H](CC(C)C)C(=O)N[C@@H](CCCCN)C(=O)N[C@@H](C)C(=O)N[C@@H]([C@@H](C)CC)C(=O)NCC(=O)N[C@@H](CO)C(=O)N[C@@H]([C@@H](C)CC)C(=O)N[C@@H](Cc1ccccc1)C(=O)NCC(=O)N[C@@H](CCCCN)C(=O)N2 [Compound 48] (H-N[Nle]D[Nle]RCSASVECKQSCLKAIGSIFGKC[Nle]NKKCKCYPR-NH2; disulfide 6-27, 12-32, 16-34) | > 3000 | 0.37 | > 3000 | >8200 | 10.15 | > 3000 | >8200 | ≥ 9.00 | 9.85 |  |  |  |  |  |  |  | >8200 |
| H-NMDMRCSASVECKQKCLKAIGSIFGKCMNKKCKCYPRRRTA-NH2 (disulfide 6-27, 12-32, 16-34) [Compound 23] | 28 | 0.15 | 215 |  | 10.22 | 626 |  | ≥ 9.00 | 10.26 |  |  |  |  |  |  |  |  |
